Results: patent US20060205597A1, “Weed-controlling mulching composition” (priority 2002, published 2006)

System: Rumex obtusifolius, Trifolium repens, and Artemisia indica var. maximowiczii
Assay: Field test on bottom weed of an apple orchard
Format: in vivo
Details: after 3 months
From the text: On May 21, 5.0 liters per square meter (m^2) of a slurry obtained by mixing 15% of nonstoichiometric magnesia carbonate cement with 100 fold diluted solution of glyphosate was applied to the bottom weed of an apple orchard in Hirosaki city of Aomori prefecture. The kinds of the bottom weed included Rumex obtusifolius, Trifolium repens, and Artemisia indica var. maximowiczii and these grew to a height of 150 mm. As comparative sections, a glyphosate alone section and a no-glyphosate section were provided and after 3 months the state of growth of weeds was observed. […] From the viewpoint of the thickness of the weed, mixed application of the herbicide and the nonstoichiometric magnesia carbonate cement was very effective and the mixed treatment section inhibited the growth of the weeds until October.

O=C(O)CNCP(=O)(O)O [glyphosate]
state of growth of weeds (5.0 liters per square meter applied May 21): again grew
height of regrown weed (spindly growth): 230 mm
